In patent US6989140B2, “Methods for cancer imaging” (Threshold Pharmaceuticals, Inc., priority 2001, dated 2006):

How the values were obtained:
[1] = Solubility of the isolated conjugate in methanol and water; format: physicochemical; conditions: isolated product after preparative TLC
Method: More particularly, 2.2 mg (4 micromoles) of 6-((4,4-difluoro-5,7-dimethyl-4-bora-3a,4a-diaza-s-indacene-3-propionyl)amino)hexanoic acid, succinimidyl ester was dissolved in 0.3 ml of DMF followed by the addition of 6 mg (28 micromoles) of glucosamine HCL dissolved in 0.3 ml of water and 3.9 microliters (28 micromoles) of triethyl amine. The reaction was stirred for 24 hrs at room temperature, evaporated under reduced pressure, and dissolved in a minimum of methanol. This solution was spread on a preparative TLC plate (silica), dried, and developed with 2.5% water in acetonitrile. The plate was then dried and the product visualized with a UV light.
About 4 mg (4.8 micromoles) of Texas Red®-X, succinimidyl ester *single isomer* (816.94 MW, Molecular Probes, T-20175) were dissolved in 1.2 ml of methanol and combined with 4 mg (18 micromoles) of glucosamine HCl (Sigma) in 600 microliters of water. About 2.5 microliters (18 micromoles) of triethylamine were then added. The reaction was stirred overnight at 20° C. and then evaporated under reduced pressure. The gum was dissolved in methanol and spread on a preparative TLC plate (silica), dried, and developed with 10% water in acetonitrile. The plate was then dried and the product visualized with a UV light. […] B. Synthesis of 5-(and 6) Carboxynaphtofluorescein Glucosamine Conjugate [drawing 12]
About 8.3 mg (14 micromoles) of 5-(and-6)-carboxynaphthofluorescein, succinimidyl ester *mixed isomers* (MW 573.51, Molecular Probes, C-653) were dissolved in 2 ml of DMF, and 10 mg (46 micromoles) of glucosamine HCl (Sigma) in 1 ml of water was added. About 5.8 microliters (46 micromoles) of triethylamine were then added. The reaction was stirred overnight at 20° C. and then evaporated under reduced pressure. The gum was dissolved in 25% water in methanol and spread on a preparative TLC plate (silica), dried, and developed with 10% water in acetonitrile. The plate was then dried and the product visualized with a UV light. […] C. Synthesis of Glucosamine N-Methylanthranilamide Conjugate [drawing 13]

Raji lymphoma cells = assay: 2-NBDG uptake in Raji lymphoma cells versus peripheral blood white cells (PBMC); format: cell-based; conditions: Raji lymphoma cells vs PBMC; 200 uM; 40 min; 37° C.; fluorescence plate reader (FIG. 2)
Method: Raji cells from culture one t-75 flask. Peripheral blood white cells from Stanford Blood Bank. Leukocytes were further separated by Ficoll separation (twice). These cells are referred to as PBMC (peripheral blood mononuclear cells). Phosphate-buffered saline. 2-NBDG, 0.1 M in water.
Culture medium with cells (either Raji or PBMC, 15 mL) were centrifuged for 10 min at 800×g. The pellet of cells was resuspended in PBS and centrifuged for 10 min at 800×g, and the resulting pellet was resuspended in 1.5 mL PBS. Cells were counted and adjusted to 1×10^6 per mL for both. Aliquots (100 uL) were placed into each of 2 tubes for each cell type, and the tubes were incubated at 37° C. for 15 min. The fluorescent deoxyglucose conjugate 2-NBDG was added to each tube to provide a concentration of 200 uM. At 40 min, the tubes were removed from the 37° C. bath and immediately placed on ice. The cells were washed twice with PBS and resuspended in 100 uL of PBS. A 20 uL aliquot was placed in each of 5 wells of an LJL 96-well plate, and fluorescence was counted by a LJL plate reader.

SMILES: O=C(NC1C(O)OC(CO)C(O)C1O)c1ccc(C(=O)O)c(-c2c3ccc4cc(O)ccc4c3oc3c2ccc2cc(=O)ccc23)c1 (centres unmarked)
- solubility in methanol [1]: soluble
- solubility in water [1]: sparingly soluble

SMILES: O=C(CCCCCNS(=O)(=O)c1ccc(C2=c3cc4c5c(c3Oc3c2cc2c6c3CCCN6CCC2)CCC[N+]=5CCC4)c(S(=O)(=O)[O-])c1)NC1C(O)OC(CO)C(O)C1O (single isomer, unassigned) [Texas Red Glucosamine Conjugate]
- solubility in methanol [1]: soluble
- solubility in water [1]: sparingly soluble

SMILES: O=C[C@H](Nc1ccc([N+](=O)[O-])c2nonc12)[C@@H](O)[C@H](O)[C@H](O)CO [2-NBDG, 2-(N-(7-nitrobenz-2-oxa-1,3-diazol-4-yl)amino)-2-deoxyglucose]
- uptake by a cancer cell as compared to a normal cell (Raji lymphoma cells): preferred uptake
